In article PMC10287695, “Non-covalent inhibitors of thioredoxin glutathione reductase with schistosomicidal activity in vivo” (Nature Communications, 2023):
Like-named read-outs stand apart in the source and are kept apart here. Marks after values point to notes of the source that are not given here.

Tests used:
S. mansoni TGR = target: T1, S. mansoni TGR (Schistosoma mansoni, UniProt Q962Y6); test: S. mansoni TGR enzyme inhibition (DTNB reduction); assay type: biochemical; conditions: for % inhibition: TGR; for inhibition at 15 µM / inhibition at 30 µM / inhibition at 66.7 µM: read-out: TGR % inhibition; for S. mansoni TGR inhibition (%) at 66.7 µM: 6 h preincubation (enzyme + 100 µM NADPH + compound)
T1 construct: made in house
T1 sequence (Q962Y6 1-598): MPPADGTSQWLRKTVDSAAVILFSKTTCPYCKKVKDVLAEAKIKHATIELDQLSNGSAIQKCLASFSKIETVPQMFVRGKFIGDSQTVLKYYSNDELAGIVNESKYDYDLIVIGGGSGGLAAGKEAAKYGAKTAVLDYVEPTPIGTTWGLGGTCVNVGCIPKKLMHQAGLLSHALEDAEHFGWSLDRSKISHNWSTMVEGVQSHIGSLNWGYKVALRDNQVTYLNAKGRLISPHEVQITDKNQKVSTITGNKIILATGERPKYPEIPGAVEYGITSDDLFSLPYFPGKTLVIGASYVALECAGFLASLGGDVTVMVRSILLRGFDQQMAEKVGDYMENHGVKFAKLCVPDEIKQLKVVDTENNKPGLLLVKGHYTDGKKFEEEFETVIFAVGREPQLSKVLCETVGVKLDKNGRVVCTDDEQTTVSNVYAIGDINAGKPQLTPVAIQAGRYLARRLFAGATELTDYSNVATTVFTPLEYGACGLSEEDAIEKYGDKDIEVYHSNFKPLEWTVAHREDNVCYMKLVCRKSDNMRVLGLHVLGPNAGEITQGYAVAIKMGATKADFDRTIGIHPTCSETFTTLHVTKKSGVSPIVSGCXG
Experimental: (§1) Recombinant TGR, human TrxR1, B. malayi (Bm)TrxR and human GR proteins were expressed and purified as described[20],[69],[79]. The codon optimized sequence for P. falciparum (PfTrxR, https://www.ncbi.nlm.nih.gov/protein/CAA60574.1/) with an N-terminal 6-His tag was synthesized and inserted into pET15b (GenScript) and expressed in BL21 (DE3) cells and purified as described for human GR[20]. TGR and TrxR enzyme inhibition assays were performed in triplicate at 25 °C as described[20] in 0.1 M potassium phosphate (pH 7.4), 10 mM EDTA, 100 µM NADPH and 0.01% Tween-20. […] The reaction was started with addition of an equal volume of DTNB (6 mM) and NADPH (100 µM) and the increase in A412 during the first 3 min was recorded. […] The reaction was preincubated for 15 min. Activity was initiated with the addition of 1 mM GSSG and 100 μM NADPH and initial rates of NADPH oxidation were monitored at 340 nm. The reactions were done in triplicate. The IC50 was calculated in GraphPad Prism.

Human TrxR1 = target: T2, Human TrxR1 (Homo sapiens, UniProt Q16881); test: Human TrxR1 enzyme inhibition (DTNB reduction); assay type: biochemical; conditions: for IC50: 15 min preincubation (enzyme + 100 µM NADPH + compound), read-out: Human TrxR1 IC50; for % inhibition: hsTrxR; for % inhibition / hsTrxR % inhibition: 15 minutes pre-incubation
T2 construct: made in house
T2 sequence (Q16881 1-499 isoform Q16881-5): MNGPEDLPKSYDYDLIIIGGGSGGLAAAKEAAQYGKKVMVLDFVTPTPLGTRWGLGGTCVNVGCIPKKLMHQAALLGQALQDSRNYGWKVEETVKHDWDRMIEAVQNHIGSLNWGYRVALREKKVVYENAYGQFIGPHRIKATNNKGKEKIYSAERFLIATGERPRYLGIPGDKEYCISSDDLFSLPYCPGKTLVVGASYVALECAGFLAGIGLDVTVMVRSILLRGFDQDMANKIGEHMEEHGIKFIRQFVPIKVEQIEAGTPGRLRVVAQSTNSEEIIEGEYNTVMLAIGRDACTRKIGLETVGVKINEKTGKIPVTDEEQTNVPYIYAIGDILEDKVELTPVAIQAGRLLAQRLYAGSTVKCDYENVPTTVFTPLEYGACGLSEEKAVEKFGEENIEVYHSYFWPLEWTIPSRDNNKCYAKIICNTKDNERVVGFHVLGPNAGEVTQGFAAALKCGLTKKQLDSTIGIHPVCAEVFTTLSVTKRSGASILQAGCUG
Experimental: as §1

[1] = system: S. mansoni newly transformed schistosomula (NTS); test: Schistosomicidal activity ex vivo, NTS (Cell Titer Glo); assay type: cell-based; conditions: for LD50 ex vivo S. mansoni NTS: 24 h exposure, Cell TiterGlo; for % viability: S. mansoni NTS
Experimental: Oncomelania hupensis subsp. hupensis, Chinese strain, infected with S. japonicum, Chinese strain, and Biomphalaria glabrata, strain NMRI, infected with S. mansoni, strain NMRI, were provided by the NIAID Schistosomiasis Resource Center for distribution through BEI Resources, NIAID, NIH. After infections were patent, snails were exposed to bright light for 1 hr to obtain cercariae. Cercariae were mechanically transformed to schistosomula. Briefly, cercariae were placed on ice for 30 min and then centrifuged at 350 × g for 10 mins. The supernatant was decanted and 2 ml of serum-free M199 medium was added to cercarial pellets and vortexed for 1 min until cercarial tails were detached. NTS were purified by layering on 4 °C Percoll gradient suspension containing Eagle’s minimum essential medium, penicillin-streptomycin (10,000 U per ml penicillin/10,000 U per ml streptomycin), and 1 M HEPES in 0.85% NaCl with cercariae suspension and centrifuged at 500 × g for 15 min. Cercarial pellets were resuspended and washed thrice in serum-free M199 medium and collected at 100 × g for 5 min. NTS (240) were transferred to U-bottom 96 well assay plates containing 200 µl of M199 medium supplemented with 5.5 mM D-glucose, penicillin-streptomycin and 5% heat inactivated fetal bovine serum and incubated at 37 °C in a 5% CO2 incubator overnight.
DMSO formulated compounds were diluted with phenol red free M199 medium or RPMI medium for NTS or juvenile and adult worms, respectively, at <1% DMSO final concentrations. NTS, juvenile and adult worms from overnight cultures were tested against compounds in triplicate. Controls were treated with DMSO alone or 5 µM AF as a positive control in appropriate medium. Worm viability was assessed at 24 or 72 h by measuring ATP content of worms using Cell Titer Glo Assay (Promega) as described. Schistosome viabilities in the presence of the compounds were assessed using this formula: % Viability = Averages of Test / Averages of DMSO Control x 100.

Vero cells = test: Cytotoxicity in mammalian cells (Cell Titer Glo); assay type: cell-based
Experimental: Following overnight incubation, formulated DMSO-compound stock solutions were diluted with DMEM at <1% DMSO final concentrations. […] Vero cells treated similarly with different concentrations of PZQ, MZM and AF (Cayman Chemicals) were used as positive controls.

[2] = 15 min preincubation (enzyme + 100 µM NADPH + compound)
[3] = 15 minutes pre-incubation, compound 15 µM
[4] = 15 minutes pre-incubation, compound 30 µM
[5] = 15 minutes pre-incubation, compound 66.7 µM
[6] = 6 hours pre-incubation, compound 15 µM
[7] = 6 hours pre-incubation, compound 30 µM
[8] = 6 hours pre-incubation, compound 66.7 µM
[9] = 15 minutes pre-incubation, 15 µM
[10] = 15 minutes pre-incubation, 30 µM
[11] = 15 minutes pre-incubation, 66.7 µM
[12] = 6 hours pre-incubation, 66.7 µM

| SMILES | IC50 (Human TrxR1) [µM] | LD50 ex vivo S. mansoni NTS [1] | % viability ([1]; Conc. 1 µM) [%] | % viability ([1]; Conc. 5 µM) [%] | % inhibition (S. mansoni TGR; [3]) [%] | % inhibition (S. mansoni TGR; [4]) [%] | % inhibition (S. mansoni TGR; [5]) [%] | % inhibition (S. mansoni TGR; [6]) [%] | % inhibition (S. mansoni TGR; [7]) [%] | % inhibition (S. mansoni TGR; [8]) [%] | % inhibition (Human TrxR1; compound 15 µM) [%] | % inhibition (Human TrxR1; compound 30 µM) [%] | % inhibition (Human TrxR1; compound 66.7 µM) [%] | % viability ([1]; Conc. 15 µM) [%] | % viability ([1]; Conc. 50 µM) [%] | % viability (Vero cells; Vero cells, Conc. 5 µM) [%] | % viability (Vero cells; Vero cells, Conc. 10 µM) [%] | % viability (Vero cells; Vero cells, Conc. 25 µM) [%] | % viability (Vero cells; Vero cells, Conc. 35 µM) [%] | % viability (Vero cells; Vero cells, Conc. 50 µM) [%] | other results |
| --- | --- | --- | --- | --- | --- | --- | --- | --- | --- | --- | --- | --- | --- | --- | --- | --- | --- | --- | --- | --- | --- |
| CC(=O)OC[C@H]1O[C@@H]([S-])[C@H](OC(C)=O)[C@@H](OC(C)=O)[C@@H]1OC(C)=O.CCP(CC)CC.[Au+] [AF, auranofin, reference compound] | 0.02 | 0.31 ± 0.02 µM | 18.3613 | 0.4904 |  |  |  |  |  |  |  |  |  |  |  |  |  |  |  |  | IC50 (S. mansoni TGR; [2]): 0.007 µM; % viability ([1]; Conc. 0.25 µM): 60.0497%; % viability ([1]; Conc. 0.5 µM): 36.3261%; % viability ([1]; Conc. 2 µM): 10.7245%; % viability (Vero cells; 0.5 µM): 57.3284%; % viability (Vero cells; 1 µM): 33.3378%; % viability (Vero cells; 5 µM): 0.2783%; % viability (Vero cells; 10 µM): 0.2356%; % viability (Vero cells; 20 µM): 0.164%; % viability (Vero cells; 30 µM): 0.07463%; LD50 ex vivo VERO (Vero cells; 24-hour exposure): 0.59 ± 0.11 µM |
| Cc1oc(-c2ccccc2)nc1CN[C@@H]1C[C@@H]2C[C@H]([C@H]1C)C2(C)C [C3] |  |  |  | 6.85 | 3.671 | 7.41 | 17.804 | 23.6178 | 33.5098 | 42.7576 | 11.8305 | 16.5848 | 23.0303 | 0.6968 | 0.6054 | 99.3244 | 93.7147 | 77.3582 | 52.4878 | 28.6792 | % viability ([1]; Conc. 30 µM): 0.5581% |
| Cc1oc(-c2ccc3ccccc3c2)nc1CNC1CCCCCC1 [C5] |  |  | 80.9812 | 52.5668 | 26.4295 | 32.2766 | 38.9031 | 38.3649 | 50.2366 | 73.0458 | 4.223 | 2.584 | 4.769 | 62.9498 | 0.07949 | 99.0699 | 99.036 | 93.1095 | 87.9829 | 82.6807 | % viability ([1]; Conc. 35 µM): 0.09782% |
| C[C@@H]1[C@H]2C[C@@H](C[C@H]1NCc1nc3ccccc3n1C)C2(C)C [C12] |  |  |  |  |  |  |  |  |  |  |  |  |  |  |  |  |  |  |  |  | TGR % inhibition (S. mansoni TGR; [9]): 0.03253%; TGR % inhibition (S. mansoni TGR; [10]): 0.1888%; TGR % inhibition (S. mansoni TGR; [11]): 0.4169%; TGR % inhibition (S. mansoni TGR; 6 hours pre-incubation, 15 µM): 0.1402%; TGR % inhibition (S. mansoni TGR; 6 hours pre-incubation, 30 µM): 1.567%; TGR % inhibition (S. mansoni TGR; [12]): 2.052%; hsTrxR % inhibition (Human TrxR1; 15 µM): 0.08203%; hsTrxR % inhibition (Human TrxR1; 30 µM): 0.1317%; hsTrxR % inhibition (Human TrxR1; 66.7 µM): 0.4216%; % viability ([1]; 5 µM, relative to Worm + M199 control): 95.6217%; % viability ([1]; 15 µM, relative to Worm + M199 control): 91.9573%; % viability ([1]; 30 µM, relative to Worm + M199 control): 88.4326%; % viability ([1]; 50 µM, relative to Worm + M199 control): 85.8655% |
| C[C@@H]1[C@H]2C[C@@H](C[C@H]1NCc1cc(-c3ccccc3)[nH]n1)C2(C)C [Compound 11] |  | >50^a µM |  |  |  |  |  |  |  |  |  |  |  |  |  |  |  |  |  |  | S. mansoni TGR IC50 (S. mansoni TGR; [2]): n.i.^e; inhibition at 15 µM (S. mansoni TGR; [9]): -0.793%; inhibition at 30 µM (S. mansoni TGR; [10]): 0.411%; inhibition at 66.7 µM (S. mansoni TGR; [11]): 1.81%; inhibition at 15 µM (S. mansoni TGR; 6 hours pre-incubation, 15 µM): 0.749%; inhibition at 30 µM (S. mansoni TGR; 6 hours pre-incubation, 30 µM): 1.2%; inhibition at 66.7 µM (S. mansoni TGR; [12]): 5.65%; S. mansoni TGR inhibition (%) at 66.7 µM (S. mansoni TGR): n.i.^e |
| C[C@@H]1[C@H]2C[C@@H](C[C@H]1NCc1nc3ccccc3n1C)C2(C)C [Compound 12] | > 66.7 | >50^a µM |  |  |  |  |  |  |  |  |  |  |  |  |  |  |  |  |  |  | S. mansoni TGR IC50 (S. mansoni TGR; [2]): n.i.^e; S. mansoni TGR inhibition (%) at 66.7 µM (S. mansoni TGR): n.i.^e; inhibition at 66.7 µM (Human TrxR1; 66.7 µM, 6 h preincubation, read-out: Human TrxR1 IC50 (µM) or inhibition (%) at 66.7 µM: inhibition): 28.6% |
